In US20150152064A1, “METHODS AND COMPOSITIONS OF TREATING A FLAVIVIRIDAE FAMILY VIRAL INFECTION” (The Board of Trustees of the Leland Stanford Junior …, priority 2007, published 2015) one finds viability data, which are given here for one compound.

This data set in a line: in vitro. Particulars: human, huh-7.5 cells. The data set is classed as cell-based. On the procedure: Luciferase assays are performed at about 48 hr to about 72 hr or 96 hr.
After a 5-30 min recovery at about 25° C., pulsed cells are diluted into 2-25 ml of prewarmed growth medium. […] Untreated cells are used as a negative control for water soluble compounds. […] Medium is changed daily.
Following about 48, about 72, or about 96 hrs of treatment, cells are incubated for 1-5 hrs at about 37° C. in the presence of 1-20% Alamar Blue reagent (TREK Diagnostic Systems).

As a reminder, the viability is a read-out of living cells in per cent, often relative to untreated cells. High values mean better survival, low ones a greater loss of cells. Compound `Cc1ccc(Cn2ncc3ccccc32)cc1` [Compound 185] had a viability at 5 µM of at least 90% and a viability at 10 µM of at least 90%.
